Where “and” joins values, the source holds several entries; their conditions need not be identical. Identical values can stand only once.

By IC50 is commonly meant the concentration at which inhibition is half-maximal. A higher IC50 goes with lower potency.

The target of the assay is dihydrodipicolinate reductase (DHPR) (Escherichia coli, UniProt P04036). The assay is described as follows: Screening of bi-ligands for DHPR (Example 25), kinetic assay at 340 nm. In kind it is biochemical. The following applies: bi-ligands, Example 25 (FIG. 7); substrate and NADPH near Km. As to the method: Screening of Biligands for Binding to Dihydrodipicolinate Reductase (DHPR)
Sequence of dihydrodipicolinate reductase (DHPR) (P04036 whole entry): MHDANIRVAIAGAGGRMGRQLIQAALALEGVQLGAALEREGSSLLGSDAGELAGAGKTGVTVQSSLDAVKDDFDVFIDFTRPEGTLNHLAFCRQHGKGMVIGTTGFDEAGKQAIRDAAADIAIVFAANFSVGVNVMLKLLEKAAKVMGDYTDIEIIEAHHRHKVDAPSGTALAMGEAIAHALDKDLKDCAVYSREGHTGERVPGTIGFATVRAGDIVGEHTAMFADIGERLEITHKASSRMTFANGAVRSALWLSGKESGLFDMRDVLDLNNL
This example describes the screening of bi-ligands having common ligand mimics for binding activity to dihydrodipicolinate reductase (DHPR).
Bi-ligands were produced by the methods of Examples 16 to 18. The bi-ligands were screened for binding to DHPR.
Stock solutions of each of the reagents were prepared in the following concentrations. Dilutions of the stock solutions were prepared prior to running the assay in the concentrations indicated below. Dilution of DHPR was prepared in 10 mM HEPES at a pH of 7.4. DHPS was not diluted and was stored in eppindorf tubes.
The L-ASA solution was prepared in the following manner. 180 μM stock solution of ASA was prepared. 100 μl of the ASA stock was mixed with 150 μl of concentrated NaHCO3 and 375 μl of […]. For use in the assay, 28.8 mM L-ASA equal 625 μl of the solution. The L-ASA stock solution was kept at a temperature of −20° C. After dilution, the pH of the 28.8 mM solution was checked and maintained between 1 and 2.
First, the DHPS reaction was monitored at 340 nm prior to and after addition of the inhibitor to detect background reaction with the inhibitor. The solution for background detection was a 945 μl solution containing 0.1 HEPES (pH 7.8), 1 mM pyruvate, 6 μM NADPH, 40 μM L-ASA, and 7 μl of 1 mg/ml DHPS at 25° C. in the volumes provided above. The sample solution was then mixed and incubated for 10 minutes. Next, 500 nM solutions of the inhibitors and enough DMSO to provide a final DMSO concentration of 5% were added. The solution was mixed and incubated for an additional 6 minutes.
In DHPR samples, 5 μl of the diluted DHPR enzyme were added. The sample was mixed for 20 seconds and then the reaction was run for 10 minutes. After a 50 second lag, the samples were read in a Cary spectrophotometer at 340 nm. Reading of the samples was continued until 300 seconds. Cuvette #1 contained the control reaction (no inhibitor), and cuvette #2 contained the positive control reaction in which Cibacron Blue at 2.58 μM was substituted for inhibitor to yield 70 to 80% inhibition. The substrate and NADPH or NAHD were kept near their Km values.
With `N=C1NC(=O)C(=Cc2ccc(O)c(C(=O)NCCSc3cc(C(=O)O)nc(C(=O)O)c3)c2)S1` [compound 5a, 4-{2-[2-hydroxy-5-(2-imino-4-oxo-thiazolidin-5-ylidenemethyl)-benzoylamino]-ethylsulfanyl}-pyridine-2,6-dicarboxylic acid], the IC50 is ~8.2 µM and ~15.5 µM. Then `N=C1NC(=O)C(=Cc2cccc(C(=O)NCCSc3cc(C(=O)O)nc(C(=O)O)c3)c2)S1` [compound 5b, 4-{2-[3-(2-imino-4-oxo-thiazolidin-5-ylidenemethyl)-benzoylamino]-ethylsulfanyl}-pyridine-2,6-dicarboxylic acid], with roughly 1.02 µM; and `N=C1NC(=O)C(=Cc2ccc(C(=O)NCCSc3cc(C(=O)O)nc(C(=O)O)c3)cc2)S1` [compound 5c, 4-{2-[4-(2-imino-4-oxo-thiazolidin-5-ylidenemethyl)-benzoylamino]-ethylsulfanyl}-pyridine-2,6-dicarboxylic acid], with roughly 33 µM.

These data come from patent US20050019825A9, “Common ligand mimics: pseudothiohydantoins” (priority 2002, published 2005).
